Results as given in ChEMBL document CHEMBL1149829, “Terpenoids Produced by Actinomycetes: Napyradiomycins from Streptomyces antimycoticus NT17” (2008).
≈ marks a conversion by molar mass, not a printed value.

Key:
Assay type in all cases: functional
Enterococcus faecalis = test: Antibacterial activity against Enterococcus faecalis ATCC 19433 in Mueller Hinton agar medium
Enterococcus faecium = test: Antibacterial activity against Enterococcus faecium ATCC 19434 in Mueller Hinton agar medium
Bacillus subtilis = test: Antibacterial activity against Bacillus subtilis ATCC 6633 in Mueller Hinton agar medium
Staphylococcus aureus = test: Antibacterial activity against Staphylococcus aureus 209P JC1 in Mueller Hinton agar medium
Streptococcus pyogenes = test: Antibacterial activity against Streptococcus pyogenes ATCC 12344 in Mueller Hinton agar medium

Compound | MIC (Enterococcus faecalis) [µM] | MIC (Enterococcus faecium) [µM] | MIC (Bacillus subtilis) [µM] | MIC (Staphylococcus aureus) [µM] | MIC (Streptococcus pyogenes) [µM]
C=C1CC[C@H](Cl)C(C)(C)[C@@H]1C[C@@]12OC(C)(C)[C@H](Cl)C[C@]1(Cl)C(=O)C1=C(C2=O)C(=[N+]=[N-])C(=O)C=C1O | 14.8 (≈ 8.02 µg/mL) | 14.8 (≈ 8.02 µg/mL) | 3.7 (≈ 2 µg/mL) | 3.7 (≈ 2 µg/mL) | –
CC(C)=CCC/C(C)=C/C[C@@]12OC(C)(C)[C@H](Cl)C[C@]1(Cl)C(=O)C1=C(C2=O)C(=[N+]=[N-])C(=O)C=C1O | 31.6 (≈ 16 µg/mL) | 15.8 (≈ 8.02 µg/mL) | 1 (≈ 0.507 µg/mL) | 2 (≈ 1.01 µg/mL) | 7.8 (≈ 3.96 µg/mL)
